Patent publication US4621077A, “Pharmacologically active biphosphonates, process for the preparation thereof and pharmaceutical compositions therefrom” (Istituto Gentili S.p.A., priority 1982, dated 1986)
Several values for one entry are separate records, joined by “and”; a condition that tells them apart may be missing. Equal values may be shown once. Read-outs that look alike come from different tables or passages of the source.

What was measured:
skull cells = test: cells; type: cell-based, Wistar rats; conditions: Rattus norvegicus, read-out: Effect on the cellular number ± S.E.M.
Procedure: (§1) Cellular culture: the cells are cultured according to the method described by Fast et al, (Biochem. J. 172, 97-107 (1978)). By way of summary, the skulls removed from Wistar rats, one day old, are digested with collagenase. The cells set free are placed on a plate with concentration of 200,000 cells per cc of medium in disks "clusters" suitable for culture, the plates having 24 wells of 1.6 cm in diameter containing 0.5 cc of medium. The cells are cultivated in the essential minimum medium containing 10% of foetal calf serum in an atmosphere of 5% CO2 at 37° up to the eighth day. The bisphosphonates are added on the first day up to the end of the experiment. The medium is changed on the first, fourth and seventh day.
The cells are counted with a Coulter counter after they have been set free from the disks by digestion with a mixture of collagenase and trypsin.

[1] = tested on: skull cells (lactate production); test: cells; type: cell-based, Wistar rats; conditions: Rattus norvegicus, 16 h, read-out: Effect on the production of lactate ± S.E.M.
Procedure: as §1
On the seventh day, the medium is changed and the cells are incubated for 16 hours. The lactate produced during this period is measured in an extract in HClO4 of the medium using lactatodehydrogenase.

[2] = tested on: patients with primary hyperparathyroidism
Procedure: The substance ABDP, aminobutanediphosphonate has been used for venous infusion, 0.5-25 mg/day dissolved in 500 cc of 5% glucose solution in the following conditions:
Eight individuals having different degrees of calcemia varying to the extent of 17-11 mg%, were treated.

[3] = tested on: patients with Paget's disease
Procedure: (§2) The substance ABDP, aminobutanediphosphonate has been used for venous infusion, 0.5-25 mg/day dissolved in 500 cc of 5% glucose solution in the following conditions: […]

[4] = tested on: patients with widespread neoplastic osteolysis; conditions: six patients, 4 mg/day
Procedure: as §2

[5] = tested on: bone reabsorption (metaphyseal bone density); test: Metaphyseal bone density / inhibition of bone reabsorption in rats treated for 7 days; type: in vivo; conditions: for metaphysical density: 7 days, rats
[6] = tested on: inhibition of the bone reabsorption
[7] = tested on: patients with tumoral osteolysis
injection sites / skin = test: Necrosis at the injection sites in rats (local skin toxicity)
From the text: The symbol "x" represents a conventional score, that is "x" meand slight necrosis, "xx" means severe necrosis, "xxx" means very severe necrosis.

[8] = tested on: patients with tumoral osteolysis; conditions: comparison stated for other bisphosphonates, no own test shown; cited from earlier work
Solubility in water = type: physicochemical
[9] = two patients, 50 mg, three days

In the case of NCCCC(O)(P(=O)(O)O)P(=O)(O)O [AHBU BP, 4-amino-1-hydroxybutan-1,1-biphosphonic acid], the activity at 2.5 µM (skull cells) is reported as 100 ± 1.6%, the activity at 25 µM (skull cells) is reported as 101 ± 1.5% and the activity at 250 µM (skull cells) is reported as 74.2 ± 4.7%. It also gave an activity at 2.5 µM [1] of 88 ± 1.5%, an activity at 25 µM [1] of 79.6 ± 4.1% and an activity at 250 µM [1] of 180 ± 18.6%. For the same compound, the “times more active than Cl2 MDP” value ([2]; comparison in patients with primary hyperparathyroidism, Cl2 MDP data from Adami et al, 1983) was 20-100 times, the calcemia and hydroxyprolinuria ([2]; four patients, 4-8 mg/day, 3-4 days) was “the decrease of calcemia has been transitory, with the values of calcemia and the hydroxyprolinuria having a tendency to return to the basal values a few days after the suspension of the drug” and the calcemia ([2]; one case with border line calcemia, 4 mg/day for four days) was “has not caused any variation in the calcemia even if it is accompanied by a persistent reduction in the calcemia”. For the same compound, the calcemia ([2]; seven patients with very elevated calcemia, venous infusion) was “a drastic reduction of calcemia was achieved up to normal values in five of the patients”, the hydroxyprolinuria ([2]; simultaneous with decrease of calcemia) was “rapid and parallel decrease of hydroxyprolinuria” and the calcemia ([2]; three cases, 25 mg/day for seven days) was “normalization of calcemia up to the day of surgical intervention”. The “hydroxyprolinuria and alkaline phosphatemia at follow-up” value ([3]; after 6-8 months) was “normal values of hydroxyprolinuria and alkaline phosphatemia”, the alkaline phosphatemia ([3]; three patients, 4 mg or 0.5 mg per day) was “gradual decrease up to normal values after 3-4 months of therapeutic cycle” and the “days of treatment after which painful bone symptoms decreased” value [4] was 5 to 8 days. For the same compound, the calciuria ([4]; two weeks) was “normalization of calciuria”, the decrease of hydroxyprolinuria ([4]; in five days) was 50-80% and the “times superior activity versus AHPrBP (inhibition of bone reabsorption)” value ([5]; in vivo in rats) was “about 100 times”. For the same compound, the “times more active than Cl2 MDP (inhibition of the bone reabsorption)” value ([6]; clinical, overall conclusion) was 100-300 times, the “activity on the immunity system” value ([6]; detailed observations in comparison not available yet) was “the activity on the immunity system appears to be peculiar to ABDP” and the fever after administration ([7]; human, in vivo) was “not been followed by fever”. The effect of treatment [7, 9] was “surprisingly every effective” and the “period of remission of the symptoms” value [7, 9] was “surprisingly long”.

For NCCC(O)(P(=O)(O)O)P(=O)(O)O [AHPrBP, 3-amino-1-hydroxypropylidene-1,1-bisphosphonate], the metaphysical density ([5]; 0.01 mg P/kg s.c., s.c. NaCl controls 29.72) was 39.53 % volume of calcified tissue, the metaphysical density ([5]; 0.1 mg P/kg s.c., s.c. NaCl controls 29.72) was 50.31 % volume of calcified tissue and the metaphysical density ([5]; 2.0 mg P/kg p.o., p.o. NaCl controls 28.45) was 33.72 % volume of calcified tissue. The “necrosis at the injection sites” value (injection sites / skin; 0.01 mg P/kg, 1 day) was “.0”, the “necrosis at the injection sites” value (injection sites / skin; 0.01 mg P/kg, 2 day) was “.0” and the “necrosis at the injection sites” value (injection sites / skin; 0.01 mg P/kg, 3 day) was “.0”. For the same compound, the “necrosis at the injection sites” value (injection sites / skin; 0.01 mg P/kg, 4 day) was “.0”, the “necrosis at the injection sites” value (injection sites / skin; 0.01 mg P/kg, 5 day) was “.0” and the “necrosis at the injection sites” value (injection sites / skin; 0.01 mg P/kg, 6 day) was “.0”. The “necrosis at the injection sites” value (injection sites / skin; 0.01 mg P/kg, 7 day) was “.0”, the “necrosis at the injection sites” value (injection sites / skin; 0.1 mg P/kg, 1 day) was “.0” and the “necrosis at the injection sites” value (injection sites / skin; 0.1 mg P/kg, 2 day) was “.0”. For the same compound, the “necrosis at the injection sites” value (injection sites / skin; 0.1 mg P/kg, 3 day) was “.0”, the “necrosis at the injection sites” value (injection sites / skin; 0.1 mg P/kg, 4 day) was “.0” and the “necrosis at the injection sites” value (injection sites / skin; 0.1 mg P/kg, 5 day) was “.0”. The “necrosis at the injection sites” value (injection sites / skin; 1 mg P/kg, 1 day) was “xxx and .0”, the “necrosis at the injection sites” value (injection sites / skin; 1 mg P/kg, 2 day) was “xxx and .0” and the “necrosis at the injection sites” value (injection sites / skin; 1 mg P/kg, 3 day) was “.0”. For the same compound, the “necrosis at the injection sites” value (injection sites / skin; 10 mg P/kg, 1 day) was “xxx”, the “necrosis at the injection sites” value (injection sites / skin; 10 mg P/kg, 2 day) was “xxx” and the “local / topical skin toxicity, in words” value (injection sites / skin; rat, in vivo) was “The most toxic substance”. For the same compound, the fever after administration [8] was “occurs very frequently”.

For O=P(O)(O)C(F)(F)P(=O)(O)O [Example 6, trisodium difluoromethanebiphosphonate], the solubility in water (Solubility in water) was “soluble in water”.

With O=P(O)(O)C(F)(F)P(=O)(O)O [Example 8, lysine difluoromethanebiphosphonate] the solubility in water (Solubility in water) was “very soluble in water”.
